Series [1] has as its system verticalisation induced by apomorphine. Kind of series: Verticalisation induced by apomorphine in the mouse. The format is in vivo. Conditions: sc, product s.c. 30 min before apomorphine 0.75 mg/kg s.c., read-out: ID50 verticalisation. On the procedure:
1. Verticalisation induced by apomorphine (0.75 mg/kg, s.c.) in the mouse
This test, described by Protais et al., Psychopharmacology, 50, 1-6 (1976), allows the evaluation of the dopaminergic antagonist activity of possible anti-psychotic products. A mouse to which apomorphine has been administered and which has been placed in a cage with vertical bars will, most of the time, remain immobile at the top of the cage, clinging by its four paws to the bars. This verticalisation behaviour is blocked if a dopaminergic antagonist product has been administered before the apomorphine.
Test immediately after subcutaneous (s.c.) administration of the product or solvent (control group), the mouse is placed in a cylindrical cage (14 cm diam.×14 cm height) with vertical bars. Thirty minutes later, the animal receives the dose of apomorphine (0.75 mg/kg, s.c.). […]
Statistical analysis: The effect of the product on verticalisation is evaluated by comparing the scores obtained for each group that has received a dose of product with those obtained for the control group (solvent) using a Mann and Whitney U test with a probability of p<0.05. […]

In series [2] the test system is conditioned avoidance response. The series can be described thus: Active avoidance conditioning in the rat. Format: in vivo. As to conditions: sc, administered subcutaneously 30 minutes before the session, read-out: ID50 conditioned avoidance responses. On the procedure:
2. Active avoidance conditioning in the rat
This test is conventionally used to characterise anti-psychotic products, cf. P. A. Janssen, C. J. E. Niemegeers, Arzneim-Forsch., 1037-1043 (1961).
It is carried out in a cage having two compartments with an electrified floor, on rats that have been conditioned in the following manner: on presentation of a light signal, the animal must move from the compartment in which it is situated to the other compartment in order not to receive an electric shock. The response of the animal to the light signal is a conditioned Avoidance response. […] The response to the electric shock is an unconditioned Escape response.
Conventionally, anti-psychotic products inhibit the conditioned Avoidance response at doses lower than those which inhibit the non-conditioned Escape response. That differentiates them from other classes of products (in particular, barbiturates and benzodiazepines), which inhibit both responses alike. […]
Test: the animals are their own controls. […] The effects of a product on the avoidance responses are evaluated during a Test Session which takes places the day after a Control Session during the course of which the animals will have received the solvent. […]

Series [3] deals with aggressiveness in isolated mice. The series can be described thus: Test of aggressiveness in isolated mice. Format: in vivo. Conditions: Mus musculus, sc, administered subcutaneously 30 minutes before test, read-out: ID50 number or duration of the attacks. The text has this:
3. Test of aggressiveness in isolated mice
This test allows the evaluation of the intraspecies anti-aggressive activity of a product in mice that have been kept in isolation for several months.
Animals: The test uses male CD mice (Charles River) weighing from 22 to 25 g on arrival at the animal house. Immediately on arrival the animals are isolated in individual cages made of opaque black polycarbonate (23×14×13 cm) having a grill lid, and are housed for a prolonged period (approximately 6 months) in the experimentation room.
Selection of pairs of mice: The selection of pairs of aggressive mice that will be used on a long-term basis in the study starts after the animals have been isolated for one month. Once or twice per week a mouse from another cage (intruder) is placed in the cage of a (resident) mouse and the two animals are observed to see if they attack one another (sniffing, pursuing, nipping, biting) during that trial. At the end of the trial (maximum duration of 10 minutes), each mouse is isolated again in its own cage. If attacks have occurred, the same pair will be tested again in the next trial; if there have been no attacks, each mouse of that pair will be placed in the presence of a different mouse in the following trial. […]

A further series can be described thus: in vivo. Conditions: rat.

Each structure is given as a SMILES string.

Source text for in vivo: Induction of catalepsy in the rat
Test: the animals are placed in individual cages and food is withdrawn the day before the test, but drink is taken as desired. The catalepsy test comprises placing each rear paw of the animal on the front paw of the same side and measuring the time (seconds) during which the animal remains in that "crossed paws" position (maximum 30 seconds). Each animal is subjected to three successive tests (one every two minutes), the animal being removed from its cage and placed on the work surface. The tests are carried out one hour after the subcutaneous injection or oral administration of the product or its solvent. The average value of the three tests represents the duration of the catalepsy (in seconds) for each animal. There are five or six rats per experimental group.
Statistical analysis: The effect of the product on the duration of catalepsy is evaluated by an ANOVA, followed by a Dunnett's test, with a probability of p<0.05.

`O=C1N(CCN2CCC(c3noc4cc(F)ccc34)CC2)CCN1c1ccccc1` [Example 5, 1-{2-[4-(6-Fluoro-1,2-benzisoxazol-3-yl)piperid-1-yl]ethyl}-3-phenylimidazolidin-2-one]: the ED50 in series [1] was found to be 0.22 mg/kg; in series [2], 0.88 mg/kg; in series [3] it was 0.18 mg/kg. The same compound gave an ED50 at 1 h in the series “in vivo” of 34 mg/kg.

In the series “in vivo” (sc), `O=C(CCCN1CCC(O)(c2ccc(Cl)cc2)CC1)c1ccc(F)cc1` [haloperidol, reference compound] yielded an ED50 at 1 h of 0.15 mg/kg.

Source of the values: patent US5780474A, “3-(piperid-4-yl)-1,2-benzisoxazole and 3-(piperazin-4-yl)-1,2-benzisoxazole compounds” (Adir et Compagnie, priority 1996, dated 1998).
